In patent US12221453B2, “Substituted pyrazolo[5′,1′:2,3]pyrimido[5,4-b][1,4]oxazines as TYK2 inhibitors” (TAKEDA PHARMACEUTICAL COMPANY LIMITED, priority 2018, dated 2025):

The molecules below were run on IL-12 induced STAT4 phosphorylation mediated by TYK2/JAK2 (assay: IL-12 induced pSTAT4 in human PBMC). Settings: 1 hr compound, 1.7 ng/mL IL-12 for 30 minutes.
Type: cell-based
Outline: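 Thawed human PBMC were pre-incubated with compound for 1 hr at 37 °C (0.1% DMSO), then stimulated with 1.7 ng/mL IL-12 for 30 minutes. Phospho-STAT4 and total STAT4 were measured in cell lysates by MSD.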
CNc1cc(-c2cnc3n([C@@H]4COC[C@H]4OC)cccc2-3)nc2c(C(=O)N[C@@H]3CC[C@H]3OC)cnn12 [Compound I-884] was tested, and the IC50 was less than 0.1 µM. O=C(N[C@@H]1CCC1(F)F)c1cnn2c3c(c(-c4cn(C5COC5)c5ncccc45)nc12)OCCN3 [Compound I-772] gave an IC50 of less than 0.1 µM. In the case of CNc1cc(Nc2cccn(C3CCN(CCF)CC3)c2=O)nc2c(C(=O)N[C@H]3CC[C@@H]3F)cnn12 [Compound I-237], the IC50 was less than 0.1 µM. CNc1cc(-c2cn([C@H]3CCOC[C@@H]3F)c3ncccc23)nc2c(C(=O)N[C@H]3CC[C@@H]3OC)cnn12 [Compound I-802] gave an IC50 of less than 0.1 µM. CNc1cc(Nc2cccn([C@@H]3CCCOC3)c2=O)nc2c(C(=O)NC3CCC3(F)F)cnn12 (stereo partly drawn) [Compound I-315] was tested, and the IC50 was less than 0.1 µM. CNc1cc(Nc2cccn(C3COC3)c2=O)nc2c(C(=O)NC3CC[C@H]3F)cnn12 (stereo partly drawn) [Compound I-160] showed an IC50 of less than 0.1 µM. Work on CNc1cc(Nc2cccn(-c3ncccc3F)c2=O)nc2c(C(=O)N[C@@H]3CC[C@H]3OC)cnn12 [Compound I-266] yielded an IC50 of less than 0.1 µM. Work on CNc1cc(Nc2cccn([C@H]3CC[C@H](OC)CC3)c2=O)nc2c(C(=O)N[C@@H]3CC[C@@]3(C)OC)cnn12 [Compound I-428] yielded an IC50 of less than 0.1 µM. In the case of CNc1cc(Nc2cccn(-c3ccccn3)c2=O)nc2c(C(=O)N[C@@H]3CCC3(F)F)cnn12 [Compound I-320], the IC50 was less than 0.1 µM. CNc1cc(Nc2cccn(-c3ccc(C)nc3)c2=O)nc2c(C(=O)NC3CCC3(F)F)cnn12 (stereo not drawn) [Compound I-324] gave an IC50 of less than 0.1 µM. CNc1cc(Nc2cccn(-c3ccccn3)c2=O)nc2c(C(=O)N[C@H]3CC[C@@H]3F)cnn12 [Compound I-201] was tested, and the IC50 was less than 0.1 µM. For CNc1cc(-c2cn([C@H]3CC3(F)F)c3ncccc23)nc2c(C(=O)N[C@H]3CC[C@H]3O)cnn12 [Compound I-552], the IC50 was less than 0.1 µM. CNc1cc(Nc2cccn([C@@H]3CCCOC3)c2=O)nc2c(C(=O)N[C@@H]3CCC3(F)F)cnn12 [Compound I-317] was tested, and the IC50 was less than 0.1 µM. Work on CNc1cc(-c2cn(C3COC3)c3ncccc23)nc2c(C(=O)N[C@H]3CC[C@H]3O)cnn12 [Compound I-555] yielded an IC50 of less than 0.1 µM. For CNc1cc(Nc2cccn([C@H]3CC[C@@H]3OC)c2=O)nc2c(C(=O)NC3CC[C@H]3O)cnn12 (stereo partly drawn) [Compound I-239], the IC50 was less than 0.1 µM. For CNc1cc(-c2cn(C3COC3)c3ncccc23)nc2c(C(=O)NC3CC[C@@H]3F)cnn12 (stereo partly drawn) [Compound I-507], the IC50 was less than 0.1 µM. Work on CNc1cc(Nc2cccn([C@H]3CCCOC3)c2=O)nc2c(C(=O)NC3CCC3(F)F)cnn12 (stereo partly drawn) [Compound I-312] yielded an IC50 of less than 0.1 µM. Molecule CNc1ccc(-c2cc(NC)n3ncc(C(=O)NC4CC[C@H]4O)c3n2)n2ccnc12 (stereo partly drawn) [Compound I-484] has an IC50 of less than 0.1 µM. For CNc1cc(-c2cn([C@@H]3COC[C@H]3OC)c3ccccc23)nc2c(C(=O)N[C@H]3CC[C@H]3O)cnn12 [Compound I-787], the IC50 was less than 0.1 µM. For CNc1cc(Nc2cccn([C@H]3CCCC[C@H]3O)c2=O)nc2c(C(=O)N[C@@H]3CC[C@H]3F)cnn12 [Compound I-214], the IC50 was less than 0.1 µM. In the case of CNc1cc(-c2cn([C@H]3CCOC[C@H]3OC)c3ncccc23)nc2c(C(=O)NC3CC[C@@H]3F)cnn12 (stereo partly drawn) [Compound I-546], the IC50 was less than 0.1 µM. Molecule CNc1cc(Nc2cccn([C@H]3C[C@@H](OC)C3)c2=O)nc2c(C(=O)N[C@H]3CC[C@@H]3F)cnn12 [Compound I-174] has an IC50 of less than 0.1 µM. In the case of CNc1cc(Nc2cccn(-c3ccccn3)c2=O)nc2c(C(=O)NC3CCC3(F)F)cnn12 (stereo not drawn) [Compound I-318], the IC50 was less than 0.1 µM. CNc1cc(Nc2cccn([C@H]3CC[C@H]3O)c2=O)nc2c(C(=O)NC3CCC3(F)F)cnn12 (stereo partly drawn) [Compound I-286] showed an IC50 of less than 0.1 µM. CNc1cc(-c2cnc3n([C@@H]4COC[C@H]4OC)cccc2-3)nc2c(C(=O)NC3CC[C@H]3F)cnn12 (stereo partly drawn) [Compound I-841] gave an IC50 of less than 0.1 µM. For CNc1cc(-c2cn([C@@H]3COC[C@H]3O)c3ncccc23)nc2c(C(=O)NC3CCC3(F)F)cnn12 (stereo partly drawn) [Compound I-692], the IC50 was less than 0.1 µM. CNc1cc(-c2cn([C@H]3CCOC[C@@H]3F)c3ncccc23)nc2c(C(=O)NC3CC[C@@H]3OC)cnn12 (stereo partly drawn) [Compound I-651] was tested, and the IC50 was less than 0.1 µM. For CNc1cc(-c2cnc3n([C@@H]4COC[C@H]4O)cccc2-3)nc2c(C(=O)NC3CCC3(F)F)cnn12 (stereo partly drawn) [Compound I-901], the IC50 was less than 0.1 µM. Molecule CNc1cc(Nc2cccn([C@H]3C[C@H](F)C3)c2=O)nc2c(C(=O)NC3CC[C@@H]3F)cnn12 (stereo partly drawn) [Compound I-164] has an IC50 of less than 0.1 µM. CNc1cc(Nc2cccn(-c3ocnc3C)c2=O)nc2c(C(=O)N[C@H]3CC[C@@H]3F)cnn12 [Compound I-186] showed an IC50 of less than 0.1 µM. With CNc1cc(Nc2cccn([C@@H]3CC[C@@H]3O)c2=O)nc2c(C(=O)N[C@H]3CCC3(F)F)cnn12 [Compound I-290] the IC50 was less than 0.1 µM. CNc1cc(Nc2cccn([C@H]3C[C@@H]3F)c2=O)nc2c(C(=O)N[C@H]3CC[C@@H]3F)cnn12 [Compound I-149] showed an IC50 of less than 0.1 µM. For CNc1cc(Nc2cccn(C3CCOCC3)c2=O)nc2c(C(=O)N[C@@H]3CC[C@H]3F)cnn12 [Compound I-190], the IC50 was less than 0.1 µM. Work on CNc1cc(-c2cn([C@H]3CN(C)C[C@@H]3F)c3ncccc23)nc2c(C(=O)N[C@H]3CC[C@@H]3OC)cnn12 [Compound I-640] yielded an IC50 of less than 0.1 µM. Work on CNc1cc(Nc2cccn([C@@H]3CCCOC3)c2=O)nc2c(C(=O)NC3CC[C@@H]3F)cnn12 (stereo partly drawn) [Compound I-194] yielded an IC50 of less than 0.1 µM. For CNc1cc(-c2cnc3n([C@H]4COC[C@@H]4OC)cccc2-3)nc2c(C(=O)NC3CC[C@@H]3OC)cnn12 (stereo partly drawn) [Compound I-880], the IC50 was less than 0.1 µM. CNc1cc(Nc2cccn(-c3ccccn3)c2=O)nc2c(C(=O)NC3CC[C@@H]3F)cnn12 (stereo partly drawn) [Compound I-200] showed an IC50 of less than 0.1 µM. In the case of CNc1cc(Nc2cccn([C@@H]3CCCC[C@@H]3O)c2=O)nc2c(C(=O)NC3CC[C@@H]3F)cnn12 (stereo partly drawn) [Compound I-209], the IC50 was less than 0.1 µM. CNc1cc(-c2cnc3n([C@@H]4COC[C@H]4O)cccc2-3)nc2c(C(=O)N[C@H]3CC[C@@H]3F)cnn12 [Compound I-830] showed an IC50 of less than 0.1 µM. For CNc1cc(-c2cn([C@H]3COC[C@H]3F)c3ncccc23)nc2c(C(=O)NC3CC[C@H]3O)cnn12 (stereo partly drawn) [Compound I-573], the IC50 was less than 0.1 µM. CNc1cc(Nc2cccn([C@@H]3CCCOC3)c2=O)nc2c(C(=O)N[C@@H]3CC[C@H]3F)cnn12 [Compound I-196] gave an IC50 of less than 0.1 µM. Work on CNc1cc(-c2cnc3n([C@@H]4COC[C@H]4O)cccc2-3)nc2c(C(=O)N[C@H]3CCC3(F)F)cnn12 [Compound I-902] yielded an IC50 of less than 0.1 µM. CNc1cc(Nc2cccn(C3CCOCC3)c2=O)nc2c(C(=O)NC3CC[C@@H]3F)cnn12 (stereo partly drawn) [Compound I-188] showed an IC50 of less than 0.1 µM. With CNc1cc(Nc2cccn([C@H]3C[C@H](F)C3)c2=O)nc2c(C(=O)N[C@H]3CC[C@@H]3F)cnn12 [Compound I-165] the IC50 was less than 0.1 µM. Molecule CNc1cc(Nc2cccn([C@H]3CC[C@H](OC)CC3)c2=O)nc2c(C(=O)N[C@@H]3C[C@H]3OC)cnn12 [I-31, 5-((1-((1r,4R)-4-Methoxycyclohexyl)-2-oxo-1,2-dihydropyridin-3-yl)amino)-N-((1R,2R)-2-methoxycyclopropyl)-7-(methylamino)pyrazolo[1,5-a]pyrimidine-3-carboxamide] has an IC50 of less than 0.1 µM. CNc1cc(Nc2cccn([C@H]3C[C@H](F)C3)c2=O)nc2c(C(=O)NC3CCC3(F)F)cnn12 (stereo partly drawn) [Compound I-283] showed an IC50 of less than 0.1 µM. O=C(NC1CC[C@@H]1F)c1cnn2c3c(c(-c4cn([C@H]5C[C@H](O)C5)c5ncccc45)nc12)OCCN3 (stereo partly drawn) [Compound I-756] was tested, and the IC50 was less than 0.1 µM. CNc1cc(Nc2cccn(C3CCOCC3)c2=O)nc2c(C(=O)NC3CCC3)cnn12 [Compound I-143] gave an IC50 of less than 0.1 µM. CNc1cc(Nc2cccn([C@@H]3CCC[C@](C)(OC)C3)c2=O)nc2c(C(=O)NC3CC3)cnn12 [Compound I-124] was tested, and the IC50 was less than 0.1 µM. CNc1cc(-c2cn([C@@H]3CCC4(C3)OCCO4)c3ncccc23)nc2c(C(=O)NC3CC[C@@H]3OC)cnn12 (stereo partly drawn) [Compound I-672] showed an IC50 of less than 0.1 µM. CNc1cc(-c2cn([C@@H]3COC[C@H]3O)c3ncccc23)nc2c(C(=O)N[C@H]3CCC3(F)F)cnn12 [Compound I-693] gave an IC50 of less than 0.1 µM. CNc1cc(Nc2cccn(-c3ocnc3C)c2=O)nc2c(C(=O)NC3CCC3)cnn12 [Compound I-144] gave an IC50 of less than 0.1 µM. CNc1cc(Nc2cccn([C@H]3CC[C@H](OC)CC3)c2=O)nc2c(C(=O)N[C@H]3C[C@@H]3OC)cnn12 [I-32, 5-((1-((1r,4S)-4-Methoxycyclohexyl)-2-oxo-1,2-dihydropyridin-3-yl)amino)-N-((1S,2S)-2-methoxycyclopropyl)-7-(methylamino)pyrazolo[1,5-a]pyrimidine-3-carboxamide] was tested, and the IC50 was less than 0.1 µM. For CNc1cc(-c2cn([C@H]3COC[C@@H]3O)c3ncccc23)nc2c(C(=O)N[C@H]3CC[C@@H]3OC)cnn12 [Compound I-631], the IC50 was less than 0.1 µM. For CNc1cc(Nc2cccn(C(C)C)c2=O)nc2c(C(=O)NC3CC[C@@H]3F)cnn12 (mixture of isomers) [Compound I-145], the IC50 was less than 0.1 µM. Molecule CNc1cc(-c2cn([C@H]3COC[C@@H]3O)c3ncccc23)nc2c(C(=O)NC3CCC3(F)F)cnn12 (stereo partly drawn) [Compound I-695] has an IC50 of less than 0.1 µM. In the case of CNc1cc(-c2cn(C3CCCC3)c3ncccc23)nc2c(C(=O)NC3CCC3(F)F)cnn12 (stereo not drawn) [Compound I-680], the IC50 was less than 0.1 µM. CNc1cc(-c2cnc3n(C4CCOCC4)cccc2-3)nc2c(C(=O)N[C@H]3CC[C@@H]3OC)cnn12 [Compound I-1014] was tested, and the IC50 was less than 0.1 µM. With CNc1cc(Nc2cccn(C3CCOCC3)c2=O)nc2c(C(=O)NC3CC[C@]3(C)O)cnn12 (stereo partly drawn) [Compound I-348] the IC50 was less than 0.1 µM. With CNc1cc(Nc2cccn([C@H]3CCCOC3)c2=O)nc2c(C(=O)N[C@@H]3CCC3(F)F)cnn12 [Compound I-314] the IC50 was less than 0.1 µM. Molecule CNc1cc(-c2cn([C@@H]3CN(C)C[C@H]3OC)c3ncccc23)nc2c(C(=O)N[C@H]3CC[C@@H]3OC)cnn12 [Compound I-646] has an IC50 of less than 0.1 µM. Molecule CNc1cc(Nc2cccn([C@@H]3C[C@H]3F)c2=O)nc2c(C(=O)N[C@@H]3CCC3(F)F)cnn12 [Compound I-276] has an IC50 of less than 0.1 µM. For CNc1cc(-c2cn([C@H]3C[C@@H](O)C3)c3ncccc23)nc2c(C(=O)NC3CCC3(F)F)cnn12 (stereo partly drawn) [Compound I-677], the IC50 was less than 0.1 µM.
